Data on seven substances can be found in article PMC4501687, “Design of a Selective Substrate and Activity Based Probe for Human Neutrophil Serine Protease 4” (PLoS ONE, 2015).

Where “and” joins values, the source holds several entries; their conditions need not be identical. Identical values can stand only once. Like-named read-outs stand apart in the source and are kept apart here. * marks the point of attachment. ACC = NC(=O)Cc1cc(=O)oc2cc(N*)ccc12; CH2Cl = ClC*

One experiment has as its target T1, PR3 (Homo sapiens, UniProt P24158).
T1 construct: purchased Athens Research Technology, Athens, Georgia, USA
T1 sequence (P24158 28-256): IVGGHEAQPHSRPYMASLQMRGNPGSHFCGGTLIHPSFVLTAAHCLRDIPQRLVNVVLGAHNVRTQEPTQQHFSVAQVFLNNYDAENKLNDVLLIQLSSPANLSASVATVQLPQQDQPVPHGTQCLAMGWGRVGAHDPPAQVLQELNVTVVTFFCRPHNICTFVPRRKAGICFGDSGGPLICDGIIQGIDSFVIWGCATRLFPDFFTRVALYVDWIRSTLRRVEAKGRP
The experiment in a line: Fluorogenic substrate hydrolysis kinetics with PR3. It is filed as biochemical. How it is done:
(§1) Kinetic parameters of selected substrates were determined in 50 mM Hepes, 0.1 M NaCl, 0.1%TRITON-X100, pH 7.45 assay buffer on 96 wells Corning plates. Measurements were performed for a minimum of 20 minutes. The excitation wavelength was 355 nm, and the emission wavelength was 460 nm, with a cutoff of 455 nm. Human NE and CatG were purchased from Biocentrum, Krakow, Poland and PR3 from Athens Research Technology, Athens, Georgia, USA. Recombinant human NSP4 was expressed and purified as previously described.
(§2) In addition to NSP4, neutrophils contain three other structurally-related serine proteases NE, PR3 and CatG [1] that are also stored in azurophilic granules. To estimate the degree of eventual cross reactivity of the optimal substrate with these three serine proteases, we measured kinetic parameters for each enzyme on PK421. […] In the case of CatG we were unable to saturate the enzyme and therefore could not calculate the individual values of kcat and Km.

For experiment [1], the target named is T2, NSP4 (Homo sapiens, UniProt Q6UWY2).
T2 construct: made in house
T2 sequence (Q6UWY2 32-283): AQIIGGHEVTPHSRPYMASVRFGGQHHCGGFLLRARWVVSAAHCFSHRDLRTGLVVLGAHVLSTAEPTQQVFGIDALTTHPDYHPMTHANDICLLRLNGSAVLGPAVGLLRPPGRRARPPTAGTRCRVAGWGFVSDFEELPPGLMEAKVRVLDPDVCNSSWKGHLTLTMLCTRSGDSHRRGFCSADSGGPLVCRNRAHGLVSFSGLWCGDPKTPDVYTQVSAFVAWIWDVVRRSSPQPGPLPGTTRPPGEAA
The experiment in a line: SDS-PAGE / streptavidin blot labeling of purified NSP4 by probe. In kind it is binding. The conditions noted are these: 100 nM NSP4 preincubated with inhibitor 30 min 37°C, then PK401 up to 2000 nM for 20 min. How it is done: 100nM of NSP4 was incubated with competing inhibitor—Ac-IVPR-CMK for 30 minutes at 37°C and then treated with different concentrations of probe—PK401 (2000nM and 1000nM) for 20 minutes at 37°C. Separately, 100nM of NSP4 was incubated with five different concentrations of probe- 2000nM, 1000nM, 100nM, 10nM, and 1 nM for 20 minutes in 37°C. As a control 100nM PK401 was incubated with assay buffer.
Samples were denatured and run in 4–12% SDS PAGE following transfer to nitrocellulose membrane. The membrane was blocked with 1.5% BSA in TBST overnight at 4°C and treated with IRDye800CW Streptavidin (dilution 1:10000 with 1.5% BSA in TBST) for 45 minutes. Then enzyme was visualized using a Li-cor fluorescence imager and Odyssey Molecular Modeling Software.
SDS-page and Western Blot […]
A standard SDS broad spectrum marker (Biorad) was used (Fig. 4A, lane 1). […]
minutes in 37° C (Fig. 4, lanes 4, 5, 6, 7, 8). […] Then enzyme was visualized using a Li-cor fluorescence imager and Odyssey Molecular Modeling Software. […]
The membrane was blocked with 1.5% BSA in TBST overnight at 4° C and treated with IRDye800CW Streptavidin (dilution 1:10000 with 1,5% BSA in TBST) for 45 minutes. Then PK401 was visualized using a Li-cor fluorescence imager and Odyssey Molecular Modeling Software.

Experiment [2] concerns the target T2, NSP4. Description: Fluorogenic substrate hydrolysis kinetics with NSP4. It is filed as biochemical. How it is done: as §1
To 20μl of substrates dissolved in assay buffer at known concentration ranges (PK421 and PK431–320–1μM, PK417 and PK418–460–27μM), 80μl of NSP4 (2.9nM), preincubated for 20 minutes at 37°C in buffer, was added. Km, kcat and kcat/Km parameters/constants were calculated using GraphPad Prism and Excel software. Each experiment was repeated three times, and the results are presented as an average +/- S.D.

The next experiment concerns the target T3, NE (Homo sapiens, UniProt P08246).
T3 construct: purchased Biocentrum, Krakow, Poland
T3 sequence (P08246 30-267): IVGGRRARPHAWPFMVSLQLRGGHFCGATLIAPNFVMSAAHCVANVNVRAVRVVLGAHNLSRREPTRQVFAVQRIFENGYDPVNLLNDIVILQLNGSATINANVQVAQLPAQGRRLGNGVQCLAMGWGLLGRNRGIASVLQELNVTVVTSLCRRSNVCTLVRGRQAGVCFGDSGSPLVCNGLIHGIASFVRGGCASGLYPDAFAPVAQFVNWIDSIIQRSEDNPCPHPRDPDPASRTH
Description: Fluorogenic substrate hydrolysis kinetics with NE. In kind it is biochemical. On the procedure: as §1, §2

Setting [3] is: Table 1, NSP4 2.9 nM preincubated 20 min 37°C, 50 mM Hepes, 0.1 M NaCl, 0.1% TRITON-X100, pH 7.45, ACC fluorescence ex 355/em 460 nm, average ± S.D., minimum of 2 experiments, SD, read-out: Km.
The mark [4] stands for this setting: Table 1, NSP4 2.9 nM, Hepes buffer pH 7.45, 37°C, ACC fluorescence, average ± S.D., minimum of 2 experiments, SD.
The mark [5] stands for this setting: Table 1 and text, NSP4 2.9 nM, Hepes buffer pH 7.45, 37°C, ACC fluorescence, average ± S.D., minimum of 2 experiments.
[6] abbreviates: Table 2, hydrolysis by NSP4, Hepes buffer pH 7.45.

As usually defined, the Km is the substrate concentration at which the rate is half of its maximum. As for “Ac-Glu(OBzl)-Lys(Ac)-hPro(OBzl)-Abu-ACC [assay substrate for PR3, reference compound]”, the Km at PR3 (Table 3, assay substrate for PR3, read-out: Km of the substrate used for analysis) worked out at 13.7 ± 0.67 µM.
In the case of Ac-IVPR-CH2Cl [reference compound], the “Effect of NSP4 active site blocking on PK401 binding” value at NSP4 [1] is listed as “prevented binding”.
The term kcat denotes the maximal rate divided by the concentration of active sites. Broadly, the kcat/Km is the second-order rate constant that governs catalysis at low substrate concentration. With “Ac-IVPR-{ACC} (SMILES CC[C@H](C)[C@H](NC(C)=O)C(=O)N[C@H](C(=O)N1CCC[C@H]1C(=O)N[C@@H](CCCNC(=N)N)C(=O)Nc1ccc2c(CC(N)=O)cc(=O)oc2c1)C(C)C) [PK417, fluorogenic NSP4 substrate of natural amino acids]”, the Michaelis-Menten constant (Km) on NSP4 [2] (setting [3]) was determined as 96 ± 16 µM. Further, on NSP4 [2] (setting [4]), the turnover number (kcat) amounted to 0.2 ± 0.02 s⁻¹. Besides, the kcat/Km on NSP4 [2] (setting [5]) is 2100 M⁻¹ s⁻¹ and 2100 ± 300 M⁻¹ s⁻¹.
On to “Ac-Nle(OBzl)-Met(O)2-Oic-Abu-ACC [assay substrate for NE, reference compound]”, for which, on NE (Table 3, assay substrate for NE, read-out: Km of the substrate used for analysis), the Km was 0.28 ± 0.08 µM.
For “Ac-RVPR-{ACC} (SMILES CC(=O)N[C@@H](CCCNC(=N)N)C(=O)N[C@H](C(=O)N1CCC[C@H]1C(=O)N[C@@H](CCCNC(=N)N)C(=O)Nc1ccc2c(CC(N)=O)cc(=O)oc2c1)C(C)C) [PK418, fluorogenic NSP4 substrate of natural amino acids]”, the Michaelis constant (Km) at NSP4 [2] (setting [3]) stood at 67 ± 10 µM. The catalytic constant (kcat) at NSP4 [2] (setting [4]) is recorded as 0.06 ± 0.003 x 10^−3 s^-1. On NSP4 [2] (setting [5]), the kcat/Km came out at 960 ± 190 M⁻¹ s⁻¹.
Take “Ac-hCha-Phe(guan)-Oic-Arg-ACC [PK421, optimal fluorogenic NSP4 substrate with unnatural amino acids]”: the kcat/Km entry is “Lack of measurable activity” at PR3 (Table 2, hydrolysis by PR3, NA = no activity detected); “Lack of measurable activity” on NE (Table 2, hydrolysis by NE, NA = no activity detected); 32000 M⁻¹ s⁻¹ and 32000.0 ± 4500 M⁻¹ s⁻¹ on NSP4 [2] (setting [5]); 32000 ± 4500 M⁻¹ s⁻¹ on NSP4 [2] (setting [6]). The “Increase of kcat/Km relative to PK431 (Pro to Oic at P2)” value at NSP4 [2] (NSP4, PK421 versus PK431) is recorded as 39%. In addition, the “Fold more efficiently cleaved by NSP4 than PK417 (kcat/Km ratio)” value at NSP4 [2] (NSP4, versus best substrate of only natural amino acids) is on record as “around 15 times”. In addition, the Km at NSP4 [2] (setting [3]) is 61 ± 9.1 µM; on NSP4 [2] (Table 2, hydrolysis by NSP4, Hepes buffer pH 7.45, read-out: Km) it was 61 ± 9.1 µM. Also, the turnover number (kcat) at NSP4 [2] (setting [4]) and at NSP4 [2] (setting [6]) was 2.0 ± 0.54 s⁻¹ each time.
On to “Ac-hCha-Phe(guan)-Pro-Arg-ACC [PK431, fluorogenic NSP4 substrate with unnatural amino acids]”, for which the Km at NSP4 [2] (setting [3]) stood at 53 ± 0.8 µM; at NSP4 [2] (Table 3, assay substrate for NSP4, read-out: Km of the substrate used for analysis), 53 ± 0.8 µM. Moreover, the kcat on NSP4 [2] (setting [4]) was 1.2 ± 0.017 s⁻¹. Moreover, at NSP4 [2] (setting [5]), the kcat/Km came to 23000 ± 11 M⁻¹ s⁻¹.
